According to patent EP0943339A2, “Method of preventing allograft rejection” (priority 1998, dated 1999):

System: acute allograft rejection
Experiment: murine cardiac ear pinna model of acute allograft rejection (non-vascularized cardiac tissue transplantation)
Assay type: in vivo
Details: for Graft Survival Mean ± Std Dev: monotherapy, day 0 to 17
Excerpt: In Vivo Murine Cardiac Ear Pinnae Model of Transplatation
• Methods: A rapid, facile 2-week murine bioassay of non-vascularized cardiac tissue transplantation,t he murine cardiac ear pinna model of acute allograft rejection, was used to evaluate the dose-response relationship of immunosuppressive drugs on allograft rejection. In this model, donor BALB/C (N2^d) neonatal hearts are transplanted into recipient C3H/HeN (H2^k) ear pinna pouches without vacular anastomoses. […] All compounds are given on day 0 to 17 COMPOUND P [(+)-2-[3,4-dihydro(3S,4R)-4-hydroxy-3-(4-phenyl-phenylmethyl)-7-(2H, 1-benzopyran)]cyclopentane carboxylic acid] was given orally in 0.5% Methylcellulose. […] Grafts were assessed by visual examination for contraction on alternate days (from 6 to 18) and graft survival was defined as the post-transplant day on which contractions cease. Efficacy data from day 6 to 18 is presented as mean survival days (±SD) and was analyzed by Log Rank Analysis. Graft survival values were deterined at day 18. […] The studies were performed at Stanford Medical Ceter in a collaborative grant with Randall Morris, MD. […]

## C=CC[C@@H]1/C=C(\C)C[C@H](C)C[C@H](OC)[C@H]2O[C@@](O)(C(=O)C(=O)N3CCCC[C@H]3C(=O)O[C@H](/C(C)=C/[C@@H]3CC[C@@H](O)[C@H](OC)C3)[C@H](C)[C@@H](O)CC1=O)[C@H](C)C[C@@H]2OC (relative stereo) [FK506, [3S-[3R*[E(1S*,3S*,4S*)], 4S*, 5R*, 8S*, 9E, 12R*, 14R*, 15S*, 16R*, 18S*, 19S*, 26aR*]]-5,6,8,11,12,13,14,15,16,17,18,19,24,25,26,26a-Hexadeachydro-5,19-dihydroxy-3-[2-(4-hydroxy-3-[2-(4-hydroxy-3-methoxycyclohexyl)-1-methyl-ethenyl]-14,16-dimethoxy-4,10,12,18-tetramethyl-8-(2-propenyl)-15,19-epoxy-3H-pyrido[2,1-c][1,4]oxaazacyclotricosine-1,7,20,21(4H,23H)-tetrone]
FK506 0.2 mg/kg/d intraperitoneal, survival assessed to day 18
  Graft Survival Mean ± Std Dev: 11.6 ± 1.3 days
FK506 0.4 mg/kg/d intraperitoneal, survival assessed to day 18
  Graft Survival Mean ± Std Dev: 12.4 ± 0.9 days
FK506 0.6 mg/kg/d intraperitoneal, grafts surviving at day 18 censored
  Graft Survival Mean ± Std Dev: >16.9 ± 1.8 days
FK506 0.8 mg/kg/d intraperitoneal, grafts surviving at day 18 censored
  Graft Survival Mean ± Std Dev: >17.8 ± 0.6 days

## O=C(O)C1CCCC1c1ccc2c(c1)OC[C@H](Cc1ccc(-c3ccccc3)cc1)[C@H]2O (single isomer, unassigned; (+)) [COMPOUND P]
Highest dose, 300 mg/kg/d
  efficacy as a single agent in acute rejection: significant (p<0.01)
COMPOUND P 30 mg/kg/d orally, survival assessed to day 18
  Graft Survival Mean ± Std Dev: 11.0 ± 1.1 days
COMPOUND P 100 mg/kg/d orally, survival assessed to day 18
  Graft Survival Mean ± Std Dev: 10.3 ± 0.7 days
COMPOUND P 200 mg/kg/d orally, survival assessed to day 18
  Graft Survival Mean ± Std Dev: 10.3 ± 0.7 days
COMPOUND P 300 mg/kg/d orally, survival assessed to day 18
  Graft Survival Mean ± Std Dev: 11.8 ± 1.1 days

## COc1c(C)c2c(c(O)c1C/C=C(\C)CCC(=O)O)C(=O)OC2 [MPA]
MPA 100 mg/kg/d, survival assessed to day 18
  Graft Survival Mean ± Std Dev: 13.6 ± 1.9 days
MPA 150 mg/kg/d, survival assessed to day 18
  Graft Survival Mean ± Std Dev: 16.6 ± 1.9 days
